Reference: PubChem BioAssay AID256 (DTP/NCI, 2004)
Toxic doses and inconclusive results are not listed. Rule for the calls: active = survival T/C of 150% or more; inactive = T/C below 125% in these data.

Test system: CD2F1 mice, L1210 leukemia ip, survival T/C
Experiment: NCI In Vivo Anticancer Drug Screen. Data for tumor model L1210 Leukemia (intraperitoneal) in CD2F1 (CDF1) mice
Details: higher = longer survival
In short: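 Tumor-bearing mice (transplanted tumor) were split into treated and vehicle control groups, and the measured endpoint of each treated group was divided by that of its vehicle controls.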

[1] = endpoint: mean survival time, dose: 100.0 mg/kg/injection, schedule: Q01DX009 (ip), vehicle: saline with Tween-80
[2] = endpoint: mean survival time, dose: 100.0 mg/kg/injection, schedule: Q04DX003 (ip), vehicle: saline with Tween-80
[3] = endpoint: mean survival time, dose: 200.0 mg/kg/injection, schedule: Q01DX009 (ip), vehicle: saline with Tween-80
[4] = endpoint: mean survival time, dose: 200.0 mg/kg/injection, schedule: Q04DX003 (ip), vehicle: saline with Tween-80

Measured: T/C

O/N=C(/c1ccccc1)c1ccc(O)cc1
inactive: endpoint: median survival time, dose: 25.0 mg/kg/injection, schedule: Q01DX001 (ip), vehicle: saline with Tween-80 104 % of control | endpoint: median survival time, dose: 50.0 mg/kg/injection, schedule: Q01DX001 (ip), vehicle: saline with Tween-80 101 % of control | endpoint: median survival time, dose: 100.0 mg/kg/injection, schedule: Q01DX001 (ip), vehicle: saline with Tween-80 98 % of control | endpoint: median survival time, dose: 200.0 mg/kg/injection, schedule: Q01DX001 (ip), vehicle: saline with Tween-80 104 % of control | endpoint: median survival time, dose: 400.0 mg/kg/injection, schedule: Q01DX001 (ip), vehicle: saline with Tween-80 101 % of control

O=NN1CCOC1=NC1CCCCC1
inactive: endpoint: mean survival time, dose: 3.12 mg/kg/injection, schedule: Q01DX001 (ip), vehicle: distilled water + Tween-80 97 % of control | endpoint: mean survival time, dose: 6.25 mg/kg/injection, schedule: Q01DX001 (ip), vehicle: distilled water + Tween-80 94 % of control | endpoint: mean survival time, dose: 12.5 mg/kg/injection, schedule: Q01DX001 (ip), vehicle: distilled water + Tween-80 98 % of control | endpoint: mean survival time, dose: 25.0 mg/kg/injection, schedule: Q01DX001 (ip), vehicle: distilled water + Tween-80 97 % of control | endpoint: mean survival time, dose: 50.0 mg/kg/injection, schedule: Q01DX001 (ip), vehicle: distilled water + Tween-80 100 % of control | endpoint: mean survival time, dose: 100.0 mg/kg/injection, schedule: Q01DX001 (ip), vehicle: distilled water + Tween-80 100 % of control | endpoint: mean survival time, dose: 200.0 mg/kg/injection, schedule: Q01DX001 (ip), vehicle: distilled water + Tween-80 110 % of control | endpoint: mean survival time, dose: 400.0 mg/kg/injection, schedule: Q01DX001 (ip), vehicle: distilled water + Tween-80 110 % of control

C[N+](C)(CCCCCC[N+](C)(C)Cc1ccccc1)Cc1ccccc1
inactive: endpoint: mean survival time, dose: 1.25 mg/kg/injection, schedule: Q01DX009 (ip), vehicle: saline with Tween-80 93 % of control | endpoint: mean survival time, dose: 2.5 mg/kg/injection, schedule: Q01DX009 (ip), vehicle: saline with Tween-80 93 % of control | endpoint: mean survival time, dose: 5.0 mg/kg/injection, schedule: Q01DX009 (ip), vehicle: saline with Tween-80 93 % of control | endpoint: median survival time, dose: 0.63 mg/kg/injection, schedule: Q04DX002 (ip), vehicle: saline with Tween-80 112 % of control | endpoint: median survival time, dose: 1.25 mg/kg/injection, schedule: Q04DX002 (ip), vehicle: saline with Tween-80 100 % of control | endpoint: median survival time, dose: 2.5 mg/kg/injection, schedule: Q04DX002 (ip), vehicle: saline with Tween-80 100 % of control | endpoint: median survival time, dose: 5.0 mg/kg/injection, schedule: Q04DX002 (ip), vehicle: saline with Tween-80 100 % of control

CC1=C(C)C(=O)C(SC2CC(=O)OC2=O)=C(C)C1=O (centres undefined)
inactive: endpoint: mean survival time, dose: 25.0 mg/kg/injection, schedule: Q01DX001 (ip), vehicle: saline with Tween-80 108 % of control | endpoint: mean survival time, dose: 50.0 mg/kg/injection, schedule: Q01DX001 (ip), vehicle: saline with Tween-80 96 % of control | endpoint: mean survival time, dose: 100.0 mg/kg/injection, schedule: Q01DX001 (ip), vehicle: saline with Tween-80 104 % of control

CCCCN(c1ccccc1)S(=O)(=O)c1ccc(Br)cc1
inactive: [1] 97 % of control | [2] 98 % of control | [3] 95 % of control | [4] 102 % of control | endpoint: mean survival time, dose: 400.0 mg/kg/injection, schedule: Q01DX009 (ip), vehicle: saline with Tween-80 97 % of control | endpoint: mean survival time, dose: 400.0 mg/kg/injection, schedule: Q04DX003 (ip), vehicle: saline with Tween-80 101 % of control

Brc1ccc2c(c1)C(Br)c1ccccc1-2 (centres undefined)
inactive: endpoint: mean survival time, dose: 50.0 mg/kg/injection, schedule: Q01DX009 (ip), vehicle: saline with Tween-80 105 % of control | [1] 103 % of control | [2] 101 % of control | [3] 100 % of control | [4] 101 % of control

COC1=C(NC(C)=O)C(=O)c2nc(-c3nc(C(=O)O)c(C)c(-c4ccc(OC)c(OC)c4O)c3N)ccc2C1=O
inactive: endpoint: median survival time, dose: 6.25 mg/kg/injection, schedule: Q01DX009 (ip), vehicle: Klucel (hydroxypropylcellulose) (HPC) 106 % of control | endpoint: median survival time, dose: 12.5 mg/kg/injection, schedule: Q01DX009 (ip), vehicle: Klucel (hydroxypropylcellulose) (HPC) 108 % of control | endpoint: median survival time, dose: 25.0 mg/kg/injection, schedule: Q01DX009 (ip), vehicle: Klucel (hydroxypropylcellulose) (HPC) 104 % of control | endpoint: median survival time, dose: 50.0 mg/kg/injection, schedule: Q01DX009 (ip), vehicle: Klucel (hydroxypropylcellulose) (HPC) 107 % of control | endpoint: median survival time, dose: 100.0 mg/kg/injection, schedule: Q01DX009 (ip), vehicle: Klucel (hydroxypropylcellulose) (HPC) 109 % of control | endpoint: median survival time, dose: 200.0 mg/kg/injection, schedule: Q01DX009 (ip), vehicle: Klucel (hydroxypropylcellulose) (HPC) 109 % of control

O=C1Nc2ccccc2/C1=C\c1ccccc1O
inactive: endpoint: mean survival time, dose: 50.0 mg/kg/injection, schedule: Q01DX009 (ip), vehicle: Klucel (hydroxypropylcellulose) (HPC) 93 % of control | endpoint: mean survival time, dose: 100.0 mg/kg/injection, schedule: Q01DX009 (ip), vehicle: Klucel (hydroxypropylcellulose) (HPC) 87 % of control | endpoint: mean survival time, dose: 200.0 mg/kg/injection, schedule: Q01DX009 (ip), vehicle: Klucel (hydroxypropylcellulose) (HPC) 96 % of control | endpoint: mean survival time, dose: 400.0 mg/kg/injection, schedule: Q01DX009 (ip), vehicle: Klucel (hydroxypropylcellulose) (HPC) 96 % of control
